{
  "source": "patent EP4527946A1",
  "about": "“METHOD FOR PREDICTING THE RESPONSE TO A DUAL S[…] KINASE TTK INHIBITOR THERAPY” (Pangaea Oncology, S.A, priority 2023, dated 2025)",
  "key": {"SNU-C1": {"tested_on": "SNU-C1", "assay": "Cell viability (MTT) assay", "assay_type": "cell-based", "conditions": "Homo sapiens, SNU-C1, origin Colon, Td 31 h, drug for 2-3 doubling times", "procedure": "(§1) Each concentration of drug was tested in sextuplicates. […] Data were derived from at least two independent experiments. […]"}, "MDA-MB-468": {"tested_on": "MDA-MB-468", "assay": "Cell viability (MTT) assay", "assay_type": "cell-based", "conditions": "Homo sapiens, MDA-MB-468, origin Breast, Td 35 h, drug for 2-3 doubling times", "procedure": "as §1"}, "NCI-H2228": {"tested_on": "NCI-H2228", "assay": "Cell viability (MTT) assay", "assay_type": "cell-based", "conditions": "Homo sapiens, NCI-H2228, origin LA, Td 96 h, drug for 2-3 doubling times", "procedure": "as §1"}, "NCI-H3122": {"tested_on": "NCI-H3122", "assay": "Cell viability (MTT) assay", "assay_type": "cell-based", "conditions": "Homo sapiens, NCI-H3122, origin LA, Td 49 h, drug for 2-3 doubling times", "procedure": "as §1"}, "DU-145": {"tested_on": "DU-145", "assay": "Cell viability (MTT) assay", "assay_type": "cell-based", "conditions": "Homo sapiens, DU-145, origin Pr, Td 30 h, drug for 2-3 doubling times", "procedure": "as §1"}, "EBC-1": {"tested_on": "EBC-1", "assay": "Cell viability (MTT) assay", "assay_type": "cell-based", "conditions": "Homo sapiens, EBC-1, origin LS, Td 42 h, drug for 2-3 doubling times", "procedure": "as §1"}, "T98G": {"tested_on": "T98G", "assay": "Cell viability (MTT) assay", "assay_type": "cell-based", "conditions": "Homo sapiens, origin GB, Td 22 h, drug for 2-3 doubling times", "procedure": "as §1"}, "MIA-PaCa-2": {"tested_on": "MIA-PaCa-2", "assay": "Cell viability (MTT) assay", "assay_type": "cell-based", "conditions": "Homo sapiens, MIA-PaCa-2, origin Pancreas, Td 26 h, drug for 2-3 doubling times", "procedure": "as §1"}, "FADU": {"tested_on": "FADU", "assay": "Cell viability (MTT) assay", "assay_type": "cell-based", "conditions": "Homo sapiens, origin HNSCC, Td 30 h, drug for 2-3 doubling times", "procedure": "as §1"}, "RT-112": {"tested_on": "RT-112", "assay": "Cell viability (MTT) assay", "assay_type": "cell-based", "conditions": "Homo sapiens, RT-112, origin UB, Td 24 h, drug for 2-3 doubling times", "procedure": "as §1"}, "MDA-MB-231": {"tested_on": "MDA-MB-231", "assay": "Cell viability (MTT) assay", "assay_type": "cell-based", "conditions": "Homo sapiens, MDA-MB-231, origin Breast, Td 25 h, drug for 2-3 doubling times", "procedure": "as §1"}, "NCI-H1975": {"tested_on": "NCI-H1975", "assay": "Cell viability (MTT) assay", "assay_type": "cell-based", "conditions": "Homo sapiens, NCI-H1975, origin LA, Td 39 h, drug for 2-3 doubling times", "procedure": "as §1"}, "NCI-H1819": {"tested_on": "NCI-H1819", "assay": "Cell viability (MTT) assay", "assay_type": "cell-based", "conditions": "NCI-H1819, origin LA, Td 51 h, drug for 2-3 doubling times", "procedure": "as §1"}, "WM793": {"tested_on": "WM793", "assay": "Cell viability (MTT) assay", "assay_type": "cell-based", "conditions": "Homo sapiens, WM793, origin Melan., Td 48 h, drug for 2-3 doubling times", "procedure": "as §1"}, "HCC366": {"tested_on": "HCC366", "assay": "Cell viability (MTT) assay", "assay_type": "cell-based", "conditions": "HCC366, origin LA, Td 65 h, drug for 2-3 doubling times", "procedure": "as §1"}, "LC-2/ad": {"tested_on": "LC-2/ad", "assay": "Cell viability (MTT) assay", "assay_type": "cell-based", "conditions": "Homo sapiens, origin LA, Td 58 h, drug for 2-3 doubling times", "procedure": "as §1"}, "HCC78": {"tested_on": "HCC78", "assay": "Cell viability (MTT) assay", "assay_type": "cell-based", "conditions": "Homo sapiens, HCC78, origin LA, Td 38 h, drug for 2-3 doubling times", "procedure": "as §1"}, "A549": {"tested_on": "A549", "assay": "Cell viability (MTT) assay", "assay_type": "cell-based", "conditions": "Homo sapiens, A549, origin LA, Td 22 h, drug for 2-3 doubling times", "procedure": "as §1"}, "NCI-H23": {"tested_on": "NCI-H23", "assay": "Cell viability (MTT) assay", "assay_type": "cell-based", "conditions": "Homo sapiens, NCI-H23, origin LA, Td 38 h, drug for 2-3 doubling times", "procedure": "as §1"}, "SK-MES-1": {"tested_on": "SK-MES-1", "assay": "Cell viability (MTT) assay", "assay_type": "cell-based", "conditions": "Homo sapiens, SK-MES-1, origin LS, Td 50 h, drug for 2-3 doubling times", "procedure": "as §1"}, "SK-OV-3": {"tested_on": "SK-OV-3", "assay": "Cell viability (MTT) assay", "assay_type": "cell-based", "conditions": "Homo sapiens, SK-OV-3, origin Ovarian, Td 48 h, drug for 2-3 doubling times", "procedure": "as §1"}, "PC9-ER and PC-GR4 clones": {"tested_on": "PC9-ER and PC-GR4 clones", "assay": "Flow cytometry (cell cycle, annexin V/PI) in clones", "assay_type": "cell-based", "conditions": "50 nM", "procedure": "(§2) For cell cycle analyses, cells were plated in T-25 flasks, allowed to attach, treated with drugs in RPMI 1640 + 10% FBS, trypsinised and centrifuged. Cell pellets were resuspended in PBS, fixed in 70% ethanol and incubated o/n at -20 °C. Fixed cells were subsequently re-centrifuged at 400 xg for 5 min at 4 °C; resuspended in 250 µL of PBS with 50 µg/mL RNAse A (Sigma Aldrich, Saint Louis, MO), incubated for 1 h at 37 °C and stained with propidium iodide (PI) (Roche Diagnostics, Basel, Switzerland) for 30 min at room temperature.\n(§3) For cell death analyses, the Annexin-V-FLUOS (An) staining kit (Roche Diagnostics) was employed, according to the manufacturer's instructions. Stained cells were sorted with a FACSCanto II cytometer (BD Biosciences, Franklin Lakes, NJ) using the FACSDiva software version 6.1.2. The combination of Annexin V and PI was used to differentiate four cell populations; viable cells (An -/PI-), early apoptotic (An+/PI-), necrotic (An-/PI+) and later apoptotic/necrotic (An+/PI+)."}, "[1]": {"tested_on": "EGFR TKI-resistant clones derived from the PC9 cell line and from 11-18 cells", "assay": "Dose-response (cell viability) in EGFR TKI-resistant clones", "assay_type": "cell-based", "conditions": "Homo sapiens", "description": "All parental cell lines used in the study were purchased from the ATCC or other cell banks, with the exception of PC9 and 11-18. Parental PC9 cells were provided by F. Hoffman-La Roche Ltd (Basel, Switzerland) with the authorization of Dr. Mayumi Ono (Kyushu University, Fukuoka, Japan); while parental 11-18 cells were kindly provided by Dr. Mayumi Ono. Resistant cells were derived by exposing parental cells to EGFR TKIs, as described in [Bertran-Alamillo et al., (2019) AURKB as a target in non-small cell lung cancer with acquired resistance to anti-EGFR therapy. Nat Commun 10, 1812, and Jacobsen K, et al., (2017) Convergent Akt activation drives acquired EGFR inhibitor resistance in lung cancer. […] All tumor cells were grown in a humidified atmosphere with 5% CO2 at 37°C in RPMI 1640 + 10% fetal bovine serum (FBS), 50 µg/mL penicillin-streptomycin and 2 mM L-Glutamine. Cell lines were routinely tested for mycoplasma contamination and authenticated by analyzing >20 polymorphisms using a 30-gene panel NGS.\nas §1"}, "PC9-ER": {"tested_on": "PC9-ER", "assay": "cells", "conditions": "Homo sapiens, PC-9/ER, read-out: IC50s", "procedure": "as §1"}, "NCl-H1819 cells": {"tested_on": "NCl-H1819 cells", "assay": "Flow cytometry (cell cycle, Annexin V)", "assay_type": "cell-based", "conditions": "TTKi sensitive NCl-H1819 cells", "procedure": "as §2, §3"}},
  "data": [
    {"smiles": "COc1ccc(Oc2cc(NCCC(F)(F)F)c3ncc(-c4ccc(C(=O)NC5CC5)c(C)c4)n3n2)c(F)c1F", "note": "[BAY1217389]", "values": [
      {"measurement": "IC50", "setting": "SNU-C1", "value": "> 1", "unit": "µM"},
      {"measurement": "IC50", "setting": "MDA-MB-468", "value": "0.0041 ± 0.0003", "unit": "µM"},
      {"measurement": "IC50", "setting": "NCI-H2228", "value": "> 1", "unit": "µM"},
      {"measurement": "IC50", "setting": "NCI-H3122", "value": "0.0072 ± 0.0005", "unit": "µM"},
      {"measurement": "IC50", "setting": "DU-145", "value": "> 1", "unit": "µM"},
      {"measurement": "IC50", "setting": "EBC-1", "value": "0.0046 ± 0.0006", "unit": "µM"},
      {"measurement": "IC50", "setting": "T98G", "value": "> 1", "unit": "µM"},
      {"measurement": "IC50", "setting": "MIA-PaCa-2", "value": "> 1", "unit": "µM"},
      {"measurement": "IC50", "setting": "FADU", "value": "> 1", "unit": "µM"},
      {"measurement": "IC50", "setting": "RT-112", "value": "0.0038 ± 0.0003", "unit": "µM"},
      {"measurement": "IC50", "setting": "MDA-MB-231", "value": "> 1", "unit": "µM"},
      {"measurement": "IC50", "setting": "NCI-H1975", "value": "> 1", "unit": "µM"},
      {"measurement": "IC50", "setting": "NCI-H1819", "value": "0.0026 ± 0.0003", "unit": "µM"},
      {"measurement": "IC50", "setting": "WM793", "value": "> 1", "unit": "µM"},
      {"measurement": "IC50", "setting": "HCC366", "value": "> 1", "unit": "µM"},
      {"measurement": "IC50", "setting": "LC-2/ad", "value": "0.0036 ± 0.0003", "unit": "µM"},
      {"measurement": "IC50", "setting": "HCC78", "value": "> 1", "unit": "µM"},
      {"measurement": "IC50", "setting": "A549", "value": "> 1", "unit": "µM"},
      {"measurement": "IC50", "setting": "NCI-H23", "value": "> 1", "unit": "µM"},
      {"measurement": "IC50", "setting": "SK-MES-1", "value": "> 1", "unit": "µM"},
      {"measurement": "IC50", "setting": "SK-OV-3", "value": "> 1", "unit": "µM"},
      {"measurement": "effect after G2/M arrest (flow cytometry)", "setting": "PC9-ER and PC-GR4 clones; resistant clones", "value": "extensive polyploidy"},
      {"measurement": "effect after G2/M arrest (flow cytometry)", "setting": "PC9-ER and PC-GR4 clones; sensitive clones", "value": "cell death"},
      {"measurement": "IC50", "setting": "[1]; PC-9, six clones sensitive to the TTKi", "value": "< 0.001", "unit": "µM"},
      {"measurement": "IC50", "setting": "[1]; PC-9, twelve TTKi resistant clones", "value": "> 0.2", "unit": "µM"},
      {"measurement": "IC50", "setting": "PC9-ER", "value": "> 10", "unit": "µM"},
      {"measurement": "cell death (Annexin V)", "setting": "NCl-H1819 cells", "value": "extensive induction of cell death"},
      {"measurement": "cell cycle effect (flow cytometry)", "setting": "NCl-H1819 cells; 50 nM", "value": "G2/M arrest"}
    ]}
  ]
}
